Laboratory results as given in US20210128609A1, “ONCOLOGY TREATMENTS USING ZINC AGENTS” (XYLONIX IP HOLDINGS PTE. LTD., priority 2018, published 2021).

Key:
Format in all cases: cell-based
MOLM-13 = assay: CellTiter-Glo cell viability, MOLM-13
Experimental: (§1) The 50% inhibitory concentration (IC50) was determined in the cancer cell lines using CellTiter-Glo luminescent cell viability assay after incubation with different concentrations of active agents. Each cell line was treated with active Zn(II) agent, a standard chemotherapy drug as reference control, and culture medium as vehicle control. Cell Lines. All cell lines were cultured in media supplemented with 10-15% FBS, at a temperature of 37° C., 5% CO2, and 95% humidity. The reference control drug for all cell lines was cisplatin, to be used for genomic analysis. The cell lines tested, the tissue of origin are shown below in Table 1: Procedure for Determining Half Maximal Inhibition Concentration IC50 • 1. Harvested cells during the logarithmic growth period and count cell number using Count-star. • 2. Adjusted cell concentrations to 4.44×10^4 cells/mL with respective culture medium. • 3. Added 90 μL cell suspensions to two 96-well plates (plates A and B) with the final cell density of 4×10^3 cells/well. (cell concentration was adjusted according to the data base or density optimization assay.) • 4a. Next day: For the plates of TO reading: • 1) Added 10 μL culture medium to each well of plate A for TO reading. • 2) Equilibrated the plate and its content at RT for approximately 30 min. • 3) Added 50 μL CellTiter-Glo reagent to each well. • 4) Mixed content for 5 min on an orbital shaker to induce cell lysis. • 5) Allowed the plate to incubate at RT for 20 min to stabilize luminescent signal. • 6) Recorded luminescence (TO) using EnVision Multi Label Reader. • 4b. For the plates of test reading: • 1) Prepared 10× solution of Zn(II) agent test article. […] The formula for calculating surviving rate is shown below and the absolute IC50 (EC50) was calculated according to the dose-response curve generated by GraphPad Prism 5.0. • 12) The surviving rate (%)=(LumTest article−LumMedium control)/(LumNon-treated−LumMedium control)×100%.

Molt-4 = assay: CellTiter-Glo cell viability, Molt-4
Experimental: as §1

OCI-LY-19 = assay: CellTiter-Glo cell viability, OCI-LY-19
Experimental: as §1

K-562 = assay: CellTiter-Glo cell viability, K-562
Experimental: as §1

Kasumi-1 = assay: CellTiter-Glo cell viability, Kasumi-1
Experimental: as §1

JHH-7 = assay: CellTiter-Glo cell viability, JHH-7
Experimental: as §1

U-937 = assay: CellTiter-Glo cell viability, U-937
Experimental: as §1

A549 = assay: CellTiter-Glo cell viability, A549
Experimental: The 50% inhibitory concentration (IC50) was determined in the cancer cell lines using CellTiter-Glo luminescent cell viability assay after incubation with different concentrations of active agents. Each cell line was treated with active Zn(II) agent, a standard chemotherapy drug as reference control, and culture medium as vehicle control. Cell Lines. All cell lines were cultured in media supplemented with 10-15% FBS, at a temperature of 37° C., 5% CO2, and 95% humidity. The reference control drug for all cell lines was cisplatin, to be used for genomic analysis. The cell lines tested, the tissue of origin are shown below in Table 1: Procedure for Determining Half Maximal Inhibition Concentration IC50 • 1. Harvested cells during the logarithmic growth period and count cell number using Count-star. • 2. Adjusted cell concentrations to 4.44×10^4 cells/mL with respective culture medium. • 3. Added 90 μL cell suspensions to two 96-well plates (plates A and B) with the final cell density of 4×10^3 cells/well. (cell concentration was adjusted according to the data base or density optimization assay.) • 4a. […]

MV-4-11 = assay: CellTiter-Glo cell viability, MV-4-11
Experimental: as §1

NAMALWA = assay: CellTiter-Glo cell viability, NAMALWA
Experimental: as §1

MOLM-16 = assay: CellTiter-Glo cell viability, MOLM-16
Experimental: as §1

THP-1 = assay: CellTiter-Glo cell viability, THP-1
Experimental: as §1

Jurkat clone E6-1 = assay: CellTiter-Glo cell viability, Jurkat clone E6-1
Experimental: as §1

Raji = assay: CellTiter-Glo cell viability, Raji
Experimental: as §1

OCI-AML2 = assay: CellTiter-Glo cell viability, OCI-AML2
Experimental: as §1

PANC-1 = assay: CellTiter-Glo cell viability, PANC-1
Experimental: as §1

Pfeiffer = assay: CellTiter-Glo cell viability, Pfeiffer
Experimental: as §1

L-363 = assay: CellTiter-Glo cell viability, L-363
Experimental: as §1

Calu-3 = assay: CellTiter-Glo cell viability, Calu-3
Experimental: as §1

AMO-1 = assay: CellTiter-Glo cell viability, AMO-1
Experimental: as §1

NCI-H446 = assay: CellTiter-Glo cell viability, NCI-H446
Experimental: as §1

PC-3 = assay: CellTiter-Glo cell viability, PC-3
Experimental: as §1

HCT-116 = assay: CellTiter-Glo cell viability, HCT-116
Experimental: as §1

MOLP8 = assay: CellTiter-Glo cell viability, MOLP8
Experimental: as §1

MES-SA/DX5 = assay: CellTiter-Glo cell viability, MES-SA/DX5
Experimental: as §1

[1] = 96 h, top conc. 50 μg/mL Zn(II) agent, 100 μM cisplatin

Which results are given for N.N.[Cl][Pt][Cl] [Cisplatin]?
Absolute IC50 (MOLM-13; 96 h, CellTiter-Glo): 0.16 µg/mL; % inhibition at top conc. (MOLM-13; [1]): 99.98%; HillSlope (MOLM-13; 96 h dose-response fit): −2.08; Absolute IC50 (Molt-4; 96 h, CellTiter-Glo): 0.10 µg/mL; % inhibition at top conc. (Molt-4; [1]): 99.99%; HillSlope (Molt-4; 96 h dose-response fit): −2.01; Absolute IC50 (OCI-LY-19; 96 h, CellTiter-Glo): 0.04 µg/mL; % inhibition at top conc. (OCI-LY-19; [1]): 99.99%; HillSlope (OCI-LY-19; 96 h dose-response fit): −2.61; Absolute IC50 (K-562; 96 h, CellTiter-Glo): 1.02 µg/mL; % inhibition at top conc. (K-562; [1]): 97.71%; HillSlope (K-562; 96 h dose-response fit): −1.81; Absolute IC50 (Kasumi-1; 96 h, CellTiter-Glo): 0.71 µg/mL; % inhibition at top conc. (Kasumi-1; [1]): 99.98%; HillSlope (Kasumi-1; 96 h dose-response fit): −1.18; Absolute IC50 (JHH-7; 96 h, CellTiter-Glo): 0.44 µg/mL; % inhibition at top conc. (JHH-7; [1]): 99.16%; HillSlope (JHH-7; 96 h dose-response fit): −0.80; Absolute IC50 (U-937; 96 h, CellTiter-Glo): 0.37 µg/mL; % inhibition at top conc. (U-937; [1]): 99.99%; HillSlope (U-937; 96 h dose-response fit): −4.57; % inhibition at top conc. (A549; [1]): 97.57%; HillSlope (A549; 96 h dose-response fit): −0.93; Absolute IC50 (MV-4-11; 96 h, CellTiter-Glo): 0.09 µg/mL; % inhibition at top conc. (MV-4-11; [1]): 99.99%; HillSlope (MV-4-11; 96 h dose-response fit): −2.06; Absolute IC50 (NAMALWA; 96 h, CellTiter-Glo): 0.07 µg/mL; % inhibition at top conc. (NAMALWA; [1]): 99.99%; HillSlope (NAMALWA; 96 h dose-response fit): −3.97; Absolute IC50 (MOLM-16; 96 h, CellTiter-Glo): 0.15 µg/mL; % inhibition at top conc. (MOLM-16; [1]): 99.96%; HillSlope (MOLM-16; 96 h dose-response fit): −1.65; Absolute IC50 (THP-1; 96 h, CellTiter-Glo): 0.39 µg/mL; % inhibition at top conc. (THP-1; [1]): 99.98%; HillSlope (THP-1; 96 h dose-response fit): −3.03; Absolute IC50 (Jurkat clone E6-1; 96 h, CellTiter-Glo): 0.17 µg/mL; % inhibition at top conc. (Jurkat clone E6-1; [1]): 99.99%; HillSlope (Jurkat clone E6-1; 96 h dose-response fit): −2.37; Absolute IC50 (Raji; 96 h, CellTiter-Glo): 0.50 µg/mL; % inhibition at top conc. (Raji; [1]): 99.57%; HillSlope (Raji; 96 h dose-response fit): −2.98; Absolute IC50 (OCI-AML2; 96 h, CellTiter-Glo): 0.33 µg/mL; % inhibition at top conc. (OCI-AML2; [1]): 99.96%; HillSlope (OCI-AML2; 96 h dose-response fit): −2.66; Absolute IC50 (PANC-1; 96 h, CellTiter-Glo): 1.08 µg/mL; % inhibition at top conc. (PANC-1; [1]): 96.35%; HillSlope (PANC-1; 96 h dose-response fit): −0.62; Absolute IC50 (Pfeiffer; 96 h, CellTiter-Glo): 0.83 µg/mL; % inhibition at top conc. (Pfeiffer; [1]): 99.98%; HillSlope (Pfeiffer; 96 h dose-response fit): −1.79; Absolute IC50 (L-363; 96 h, CellTiter-Glo): 0.83 µg/mL; % inhibition at top conc. (L-363; [1]): 99.98%; HillSlope (L-363; 96 h dose-response fit): −2.08; Absolute IC50 (Calu-3; 96 h, CellTiter-Glo): 0.30 µg/mL; % inhibition at top conc. (Calu-3; [1]): 82.29%; HillSlope (Calu-3; 96 h dose-response fit): −1.15; Absolute IC50 (AMO-1; 96 h, CellTiter-Glo): 0.27 µg/mL; % inhibition at top conc. (AMO-1; [1]): 99.99%; HillSlope (AMO-1; 96 h dose-response fit): −3.34; Absolute IC50 (NCI-H446; 96 h, CellTiter-Glo): 0.35 µg/mL; % inhibition at top conc. (NCI-H446; [1]): 99.99%; HillSlope (NCI-H446; 96 h dose-response fit): −0.65; Absolute IC50 (PC-3; 96 h, CellTiter-Glo): 1.13 µg/mL; % inhibition at top conc. (PC-3; [1]): 93.27%; HillSlope (PC-3; 96 h dose-response fit): −1.55; Absolute IC50 (HCT-116; 96 h, CellTiter-Glo): 2.89 µg/mL; % inhibition at top conc. (HCT-116; [1]): 91.19%; HillSlope (HCT-116; 96 h dose-response fit): −2.03; Absolute IC50 (MOLP8; 96 h, CellTiter-Glo): 0.16 µg/mL; % inhibition at top conc. (MOLP8; [1]): 99.98%; HillSlope (MOLP8; 96 h dose-response fit): −2.16; Absolute IC50 (MES-SA/DX5; 96 h, CellTiter-Glo): 0.56 µg/mL; % inhibition at top conc. (MES-SA/DX5; [1]): 99.97%; HillSlope (MES-SA/DX5; 96 h dose-response fit): −1.75
